Among the data in patent publication US9932331B2, “Phenyl tetrahydroisoquinoline compound substituted with heteroaryl” (TAISHO PHARMACEUTICAL CO., LTD, priority 2014, dated 2018) are IC50 and inhibition in vivo values, retold here.

pIC50: −log10 of the molar value. Counter-ions that a name gives are not always drawn.

Assay [1] addresses T1, human NHE3 (Homo sapiens, UniProt P48764).
T1 sequence (P48764 26-834): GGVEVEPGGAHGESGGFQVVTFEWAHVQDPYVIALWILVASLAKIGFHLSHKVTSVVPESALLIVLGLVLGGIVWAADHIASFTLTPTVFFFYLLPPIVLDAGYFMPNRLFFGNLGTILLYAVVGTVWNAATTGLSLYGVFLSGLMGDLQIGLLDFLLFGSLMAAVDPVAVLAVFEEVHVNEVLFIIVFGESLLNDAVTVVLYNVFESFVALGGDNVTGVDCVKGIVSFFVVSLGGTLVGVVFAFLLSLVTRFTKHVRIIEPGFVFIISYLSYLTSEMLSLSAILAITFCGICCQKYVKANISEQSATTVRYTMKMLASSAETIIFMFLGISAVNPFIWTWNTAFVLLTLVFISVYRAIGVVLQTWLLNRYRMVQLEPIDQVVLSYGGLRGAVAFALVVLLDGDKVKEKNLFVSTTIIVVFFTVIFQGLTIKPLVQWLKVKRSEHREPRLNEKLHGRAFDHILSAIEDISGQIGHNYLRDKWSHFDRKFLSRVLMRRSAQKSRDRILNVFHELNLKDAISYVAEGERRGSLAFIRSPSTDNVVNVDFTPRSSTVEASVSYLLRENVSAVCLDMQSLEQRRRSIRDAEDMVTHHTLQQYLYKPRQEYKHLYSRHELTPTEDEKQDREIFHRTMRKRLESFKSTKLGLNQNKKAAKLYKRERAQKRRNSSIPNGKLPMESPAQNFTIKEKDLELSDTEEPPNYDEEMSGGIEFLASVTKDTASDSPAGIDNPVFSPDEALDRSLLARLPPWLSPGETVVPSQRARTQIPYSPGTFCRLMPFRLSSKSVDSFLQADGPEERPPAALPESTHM
Nature of the assay: NHE3 inhibition test (recovery of intracellular pH in cell line stably expressing human NHE3). It counts as cell-based. To be noted: OK cells deficient in endogenous NHE stably expressing human NHE3; BCECF fluorescence, initial rate of pH recovery; read-out: human NHE3 inhibitory activity IC50. Summed up:
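IC50 is the concentration halving the initial rate of Na-triggered intracellular pH recovery, tracked by BCECF fluorescence, in NH4Cl-acidified cells. Cells: NHE-deficient OK line stably transfected with human NHE3; compound added in Na-free pH 7.4 buffer.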

For assay [2], the system named is SD rat. Nature of the assay: 32P-phosphate oral loading test using SD rat (phosphorus absorption inhibitory effect). Format: in vivo. As to conditions: Rattus norvegicus, 0.5 h; SD male rats, oral dose 3 mg/kg; plasma radioactivity 30 minutes after 32P-phosphate solution, vs control group; read-out: Rate of inhibition of phosphate absorption. Summed up:
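Male 8-week-old SD rats were dosed orally at 5 ml/kg with compound at 0.2 mg/mL or 0.6 mg/mL in water, then 5 min later given 32P-phosphate in 1.3 mM NaH2PO4 (5 ml/kg). Plasma radioactivity at 30 minutes was counted by liquid scintillation; inhibition (%) was calculated relative to the water-dosed control group.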

Take `CN1Cc2c(Cl)cc(Cl)cc2[C@@H](c2cccc(-c3cc(OCCOCCOCCOCCNC(=O)COCC(=O)NCCOCCOCCOCCOc4cc(-c5cccc([C@@H]6CN(C)Cc7c(Cl)cc(Cl)cc76)c5)ncn4)ncn3)c2)C1` [Example 8-18, 1-[(6-{3-[(4R)-6,8-Dichloro-2-methyl-1,2,3,4-tetrahydroisoquinolin-4-yl]phenyl}pyrimidin-4-yl)oxy]-N-{2-[2-(2-{2-[(6-{3-[(4S)-6,8-dichloro-2-methyl-1,2,3,4-tetrahydroisoquinolin-4-yl]phenyl}pyrimidin-4-yl)oxy]ethoxy}ethoxy)ethoxy]ethyl}-13-oxo-3,6,9,15-tetraoxa-12-azaheptadecan-17-amide hydrochloride]: the pIC50 (as a rule, the IC50 on a negative log10 scale, so that one unit is a factor of ten) in assay [1] is 7.97. In assay [2], the inhibition in vivo at 3 mg/kg was 27%.
On to `CN1Cc2c(Cl)cc(Cl)cc2[C@H](c2cccc(-c3cncc(NCCOCCOCCOCCNC(=O)[C@H](O)[C@@H](O)C(=O)NCCOCCOCCOCCNc4cncc(-c5cccc([C@@H]6CN(C)Cc7c(Cl)cc(Cl)cc76)c5)n4)n3)c2)C1` [Example 8-20, (2R,3R)-N,N′-Bis{2-[2-(2-{2-[(6-{3-[(4S)-6,8-dichloro-2-methyl-1,2,3,4-tetrahydroisoquinolin-4-yl]phenyl}pyrazin-2-yl)amino]ethoxy}ethoxy)ethoxy]ethyl}-2,3-dihydroxybutanediamide tetrahydrochloride], for which, in assay [1], the pIC50 is 8.48. In addition, in assay [2], the inhibition in vivo at 3 mg/kg came out at 37%.
